Earlier results as cited in patent US20050090554A1, “Treatment of gastroparesis and nonulcer dyspepsia with GABAB agonists” (priority 2003, published 2005).

Key:
[1] = administered isomer
[2] = compared with the S-isomer
[3] = with the exception of the upper small intestine (carrier-mediated transport)

SMILES	arterial blood pressure and heart rate [1]	half-life [2]	metabolic clearance [2]	systemic exposure [2]	permeability in the GI tract [3]
NC[C@@H](CC(=O)O)c1ccc(Cl)cc1 [(S)-baclofen]	decrease				
NC[C@H](CC(=O)O)c1ccc(Cl)cc1 [(R)-baclofen]	opposite effects	longer	lower	higher	
NCC(CC(=O)O)c1ccc(Cl)cc1 (racemic) [baclofen, 4-amino-3-(p-chlorophenyl)-butyric acid]					poor permeability
